# Assay results as given in PubChem BioAssay (NCI).
#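 Tested at 5 concentrations; 48 h exposure; 96-well plates; endpoints linearly interpolated, else capped at highest concentration. Definition used: TGI = concentration required for complete inhibition of growth.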
# Legend:
# Assay in all cases: growth of human tumour cells (NCI), 48 h
# 786-0 renal = system: 786-0 renal
# A498 renal = system: A498 renal
# A549 NSCLC = system: A549 NSCLC
# ACHN renal = system: ACHN renal
# COLO 205 colon = system: COLO 205 colon
# DLD-1 colon = system: DLD-1 colon
# DMS 114 small cell lung = system: DMS 114 small cell lung
# EKVX NSCLC = system: EKVX NSCLC
# HCC-2998 colon = system: HCC-2998 colon
# HCT-116 colon = system: HCT-116 colon
# HCT-15 colon = system: HCT-15 colon
# HL-60(TB) leukemia = system: HL-60(TB) leukemia
# HOP-18 NSCLC = system: HOP-18 NSCLC
# HOP-62 NSCLC = system: HOP-62 NSCLC
# HOP-92 NSCLC = system: HOP-92 NSCLC
# HT29 colon = system: HT29 colon
# IGROV1 ovarian = system: IGROV1 ovarian
# K-562 leukemia = system: K-562 leukemia
# KM12 colon = system: KM12 colon
# KM20L2 colon = system: KM20L2 colon
# LOX IMVI melanoma = system: LOX IMVI melanoma
# LXFL 529 NSCLC = system: LXFL 529 NSCLC
# M19-MEL melanoma = system: M19-MEL melanoma
# MALME-3M melanoma = system: MALME-3M melanoma
# MOLT-4 leukemia = system: MOLT-4 leukemia
# NCI-H226 lung = system: NCI-H226 lung
# NCI-H23 lung = system: NCI-H23 lung
# NCI-H460 lung = system: NCI-H460 lung
# NCI-H522 lung = system: NCI-H522 lung
# OVCAR-3 ovarian = system: OVCAR-3 ovarian
# OVCAR-4 ovarian = system: OVCAR-4 ovarian
# OVCAR-5 ovarian = system: OVCAR-5 ovarian
# OVCAR-8 ovarian = system: OVCAR-8 ovarian
# RPMI-8226 leukemia = system: RPMI-8226 leukemia
# RXF 393 renal = system: RXF 393 renal
# RXF-631 renal = system: RXF-631 renal
# SF-268 CNS = system: SF-268 CNS
# SF-295 CNS = system: SF-295 CNS
# SF-539 CNS = system: SF-539 CNS
# SK-MEL-2 melanoma = system: SK-MEL-2 melanoma
# SK-MEL-28 melanoma = system: SK-MEL-28 melanoma
# SN12C renal = system: SN12C renal
# SNB-19 CNS = system: SNB-19 CNS
# SNB-75 CNS = system: SNB-75 CNS
# SNB-78 CNS = system: SNB-78 CNS
# SR leukemia = system: SR leukemia
# SW-620 colon = system: SW-620 colon
# TK-10 renal = system: TK-10 renal
# U251 CNS = system: U251 CNS
# UACC-257 melanoma = system: UACC-257 melanoma
# UO-31 renal = system: UO-31 renal
# XF 498 CNS = system: XF 498 CNS
# CAKI-1 renal = system: CAKI-1 renal
# CCRF-CEM leukemia = system: CCRF-CEM leukemia
# DMS 273 small cell lung = system: DMS 273 small cell lung
# M14 melanoma = system: M14 melanoma
# SK-MEL-5 melanoma = system: SK-MEL-5 melanoma
# SK-OV-3 ovarian = system: SK-OV-3 ovarian
# UACC-62 melanoma = system: UACC-62 melanoma
smiles,measurement,setting,value
CC1=C(C(=O)Nc2ccccc2C)C(c2ccccc2C)C(C(=O)Nc2ccccc2C)=C(C)N1,TGI,786-0 renal,34.5 µM
same,TGI,A498 renal,> 100 µM
same,TGI,A549 NSCLC,> 100 µM
same,TGI,ACHN renal,29.5 µM
same,TGI,COLO 205 colon,62.5 µM
same,TGI,DLD-1 colon,33.4 µM
same,TGI,DMS 114 small cell lung,> 100 µM
same,TGI,EKVX NSCLC,42.3 µM
same,TGI,HCC-2998 colon,36.4 µM
same,TGI,HCT-116 colon,50.4 µM
same,TGI,HCT-15 colon,40.3 µM
same,TGI,HL-60(TB) leukemia,46.5 µM
same,TGI,HOP-18 NSCLC,37 µM
same,TGI,HOP-62 NSCLC,62.8 µM
same,TGI,HOP-92 NSCLC,29.4 µM
same,TGI,HT29 colon,43 µM
same,TGI,IGROV1 ovarian,40.1 µM
same,TGI,K-562 leukemia,69.3 µM
same,TGI,KM12 colon,37.8 µM
same,TGI,KM20L2 colon,38.9 µM
same,TGI,LOX IMVI melanoma,30.3 µM
same,TGI,LXFL 529 NSCLC,> 10 µM
same,TGI,M19-MEL melanoma,66.7 µM
same,TGI,MALME-3M melanoma,38.2 µM
same,TGI,MOLT-4 leukemia,> 10 µM
same,TGI,NCI-H226 lung,46.9 µM
same,TGI,NCI-H23 lung,68.4 µM
same,TGI,NCI-H460 lung,53.9 µM
same,TGI,NCI-H522 lung,29.9 µM
same,TGI,OVCAR-3 ovarian,34.7 µM
same,TGI,OVCAR-4 ovarian,53.9 µM
same,TGI,OVCAR-5 ovarian,66.3 µM
same,TGI,OVCAR-8 ovarian,36.8 µM
same,TGI,RPMI-8226 leukemia,81.3 µM
same,TGI,RXF 393 renal,26.2 µM
same,TGI,RXF-631 renal,> 100 µM
same,TGI,SF-268 CNS,69.5 µM
same,TGI,SF-295 CNS,44.2 µM
same,TGI,SF-539 CNS,> 10 µM
same,TGI,SK-MEL-2 melanoma,38.8 µM
same,TGI,SK-MEL-28 melanoma,42.5 µM
same,TGI,SN12C renal,35.8 µM
same,TGI,SNB-19 CNS,56.9 µM
same,TGI,SNB-75 CNS,59.2 µM
same,TGI,SNB-78 CNS,> 100 µM
same,TGI,SR leukemia,65.4 µM
same,TGI,SW-620 colon,36.2 µM
same,TGI,TK-10 renal,64.4 µM
same,TGI,U251 CNS,40.3 µM
same,TGI,UACC-257 melanoma,72.6 µM
same,TGI,UO-31 renal,30.2 µM
same,TGI,XF 498 CNS,39.2 µM
Cc1cc(Cl)ccc1NC(=O)C(=O)Cc1occc(=O)c1O,TGI,786-0 renal,> 100 µM
same,TGI,A498 renal,> 100 µM
same,TGI,A549 NSCLC,> 100 µM
same,TGI,ACHN renal,> 100 µM
same,TGI,CAKI-1 renal,> 100 µM
same,TGI,CCRF-CEM leukemia,> 100 µM
same,TGI,COLO 205 colon,> 100 µM
same,TGI,DLD-1 colon,> 100 µM
same,TGI,DMS 114 small cell lung,> 100 µM
same,TGI,DMS 273 small cell lung,> 100 µM
same,TGI,EKVX NSCLC,> 100 µM
same,TGI,HCC-2998 colon,> 100 µM
same,TGI,HCT-116 colon,> 100 µM
same,TGI,HCT-15 colon,> 100 µM
same,TGI,HL-60(TB) leukemia,> 100 µM
same,TGI,HOP-18 NSCLC,> 100 µM
same,TGI,HOP-62 NSCLC,> 100 µM
same,TGI,HOP-92 NSCLC,> 100 µM
same,TGI,HT29 colon,> 100 µM
same,TGI,IGROV1 ovarian,> 100 µM
same,TGI,K-562 leukemia,> 100 µM
same,TGI,KM12 colon,> 100 µM
same,TGI,KM20L2 colon,> 100 µM
same,TGI,LOX IMVI melanoma,> 100 µM
same,TGI,LXFL 529 NSCLC,> 100 µM
same,TGI,M14 melanoma,> 100 µM
same,TGI,M19-MEL melanoma,> 100 µM
same,TGI,MALME-3M melanoma,> 100 µM
same,TGI,MOLT-4 leukemia,> 100 µM
same,TGI,NCI-H226 lung,> 100 µM
same,TGI,NCI-H23 lung,> 100 µM
same,TGI,NCI-H460 lung,> 100 µM
same,TGI,NCI-H522 lung,> 100 µM
same,TGI,OVCAR-4 ovarian,> 100 µM
same,TGI,OVCAR-5 ovarian,> 100 µM
same,TGI,OVCAR-8 ovarian,> 100 µM
same,TGI,RPMI-8226 leukemia,> 100 µM
same,TGI,RXF 393 renal,> 100 µM
same,TGI,RXF-631 renal,> 100 µM
same,TGI,SF-268 CNS,> 100 µM
same,TGI,SF-295 CNS,> 100 µM
same,TGI,SF-539 CNS,> 100 µM
same,TGI,SK-MEL-2 melanoma,> 100 µM
same,TGI,SK-MEL-28 melanoma,> 100 µM
same,TGI,SK-MEL-5 melanoma,> 100 µM
same,TGI,SK-OV-3 ovarian,> 100 µM
same,TGI,SN12C renal,> 100 µM
same,TGI,SNB-19 CNS,> 100 µM
same,TGI,SNB-75 CNS,> 100 µM
same,TGI,SNB-78 CNS,> 100 µM
same,TGI,SR leukemia,> 100 µM
same,TGI,SW-620 colon,> 100 µM
same,TGI,TK-10 renal,> 100 µM
same,TGI,U251 CNS,> 100 µM
same,TGI,UACC-257 melanoma,> 100 µM
same,TGI,UACC-62 melanoma,> 100 µM
same,TGI,UO-31 renal,> 100 µM
same,TGI,XF 498 CNS,> 100 µM
CC(C)c1cccc(C(C)C)c1NC(=O)C(=O)C1SC(=S)NC1=O (stereo unspecified),TGI,786-0 renal,> 100 µM
same,TGI,A498 renal,> 100 µM
same,TGI,A549 NSCLC,> 100 µM
same,TGI,ACHN renal,> 100 µM
same,TGI,CAKI-1 renal,> 100 µM
same,TGI,CCRF-CEM leukemia,> 100 µM
same,TGI,COLO 205 colon,> 100 µM
same,TGI,DLD-1 colon,> 100 µM
same,TGI,DMS 273 small cell lung,> 100 µM
same,TGI,EKVX NSCLC,> 100 µM
same,TGI,HCT-116 colon,> 100 µM
same,TGI,HCT-15 colon,> 100 µM
same,TGI,HL-60(TB) leukemia,> 100 µM
same,TGI,HOP-18 NSCLC,> 100 µM
same,TGI,HOP-62 NSCLC,> 100 µM
same,TGI,HOP-92 NSCLC,> 100 µM
same,TGI,HT29 colon,> 100 µM
same,TGI,IGROV1 ovarian,> 100 µM
same,TGI,K-562 leukemia,> 100 µM
same,TGI,KM12 colon,> 100 µM
same,TGI,KM20L2 colon,> 100 µM
same,TGI,LOX IMVI melanoma,> 100 µM
same,TGI,LXFL 529 NSCLC,> 100 µM
same,TGI,M14 melanoma,> 100 µM
same,TGI,M19-MEL melanoma,> 100 µM
same,TGI,MALME-3M melanoma,> 100 µM
same,TGI,MOLT-4 leukemia,> 100 µM
same,TGI,NCI-H226 lung,> 100 µM
same,TGI,NCI-H23 lung,> 100 µM
same,TGI,NCI-H460 lung,> 100 µM
same,TGI,NCI-H522 lung,> 100 µM
same,TGI,OVCAR-4 ovarian,> 100 µM
same,TGI,OVCAR-5 ovarian,> 100 µM
same,TGI,OVCAR-8 ovarian,> 100 µM
same,TGI,RPMI-8226 leukemia,> 100 µM
same,TGI,RXF 393 renal,> 100 µM
same,TGI,RXF-631 renal,> 100 µM
same,TGI,SF-268 CNS,> 100 µM
same,TGI,SF-295 CNS,> 100 µM
same,TGI,SF-539 CNS,> 100 µM
same,TGI,SK-MEL-2 melanoma,> 100 µM
same,TGI,SK-MEL-28 melanoma,> 100 µM
same,TGI,SK-MEL-5 melanoma,> 100 µM
same,TGI,SK-OV-3 ovarian,> 100 µM
same,TGI,SN12C renal,> 100 µM
same,TGI,SNB-19 CNS,> 100 µM
same,TGI,SNB-75 CNS,> 100 µM
same,TGI,SNB-78 CNS,> 100 µM
same,TGI,SR leukemia,> 100 µM
same,TGI,SW-620 colon,> 100 µM
same,TGI,TK-10 renal,> 100 µM
same,TGI,U251 CNS,> 100 µM
same,TGI,UACC-257 melanoma,> 100 µM
same,TGI,UACC-62 melanoma,> 100 µM
same,TGI,UO-31 renal,> 100 µM
same,TGI,XF 498 CNS,> 100 µM
